Experimental data reported in patent US6417213B2, “Tricyclic compound, their production and use” (Takeda Chemical Industries, Ltd., priority 1996, dated 2002).
pIC50: −log10 of the molar value.

Columns and labels:
human platelets = test: Platelet aggregation inhibition assay; type: cell-based; conditions: ADP-induced aggregation, platelet-rich plasma from healthy male adult donors, 37° C.
Method: Platelet aggregation inhibition assay
The citrated blood from healthy male adult donors was centrifuged at 1000×g for […] and 20 minutes to harvest platelet-rich plasma (PRP) and platelet-poor plasma (PPP), respectively. Then, PRP was diluted with PPP to a platelet count of 300,000/μL. The degree of platelet aggregation was measured with a platelet aggregation measuring apparatus.
In the assay cuvette, 200 μL of PRP was incubated at 37° C. for 2 minutes. Then, 20 μL of a test drug solution was added and the mixture was further incubated for 2 minutes. Thereafter, aggregation was induced by adding 20 μl of ADP solution. The aggregation in the drug treatment group was compared with the maximum aggregation in the control group to find the inhibition rate. ADP was used in the minimal concentration (2×10^−6 to 3×10^−5 M) inducing maximal aggregation in each assay.
The test compound was added at the final concentrations of 10^−3 to 10^−9 and the IC50 value was calculated from the inhibition rates at the respective concentrations.

human PGI2 receptors = molecular target: T1, human PGI2 receptors (Homo sapiens, UniProt P43119); test: PGI2 receptor binding assay; conditions: membrane fraction of CHO cells expressing human PGI2 receptors, [3H]Iloprost 20 nM, pH 6.0, 37° C. 1 hour; read-out: IC50, inhibition of [3H]Iloprost binding to the human PGI2 receptor
T1 construct: expressed in transfected cells; host or cells: CHO cells (membrane fraction)
Method: PGI2 receptor binding assay
MES-NaOH buffer (pH 6.0) (500 μL) containing the membrane fraction (40 μg) of CHO cells caused to express human PGI2 receptors, [^3H]Iloprost (20 nM), and a test compound solution (50 μL) was incubated at 37° C. for 1 hour and then filtered through a membrane filter to separate the membrane-bound [^3H]Iloprost from the non-membrane-binding [^3H]Iloprost. The radioactivity of the membrane-bound [^3H]Iloprost was determined with a liquid scintillation counter and the binding inhibition rate in each drug treatment group was determined against the specific binding of [^3H]Iloprost to the human PGI2 receptor in the control (solvent) group.
The test compound was added at the final concentrations of 10^−6 to 10^−11 M and the IC50 values were calculated from the inhibition rates at the respective concentrations.

T1 sequence (P43119 whole entry): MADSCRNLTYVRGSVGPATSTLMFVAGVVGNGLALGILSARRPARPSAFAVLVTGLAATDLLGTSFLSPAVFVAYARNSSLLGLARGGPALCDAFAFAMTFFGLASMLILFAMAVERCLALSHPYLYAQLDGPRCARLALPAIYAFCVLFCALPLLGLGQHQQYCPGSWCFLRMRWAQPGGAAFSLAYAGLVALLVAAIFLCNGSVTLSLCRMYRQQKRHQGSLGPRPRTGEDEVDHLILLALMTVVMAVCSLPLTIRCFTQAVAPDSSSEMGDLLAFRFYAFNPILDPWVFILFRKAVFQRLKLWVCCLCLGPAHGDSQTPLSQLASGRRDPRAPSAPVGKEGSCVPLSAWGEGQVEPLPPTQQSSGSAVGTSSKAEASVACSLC

Compound	pIC50 (human platelets)	pIC50 (human PGI2 receptors)
O=C(O)COc1cccc2c1CCc1sc(SCC(c3ccccc3)c3ccccc3)nc1-2 [Example 1, [[2-(2,2-Diphenylethyl)thio-4,5-dihydronaphtho[1,2-d]thiazol-6-yl]oxy]acetic acid]	6.27	7.62
O=C(O)COc1cccc2c1OCc1sc(SCC(c3ccccc3)c3ccccc3)nc1-2 [Example 12, [[2-(2,2-Diphenylethyl)thio-4H-[1]benzopyrano[4,3-d]thiazol-6-yl]oxy]acetic acid]	–	7.21
O=C(O)COc1cccc2c1CCc1sc(SC(c3ccccc3)c3ccccc3)nc1-2 [Example 21, [(2-Diphenylmethylthio-4,5-dihydronaphtho[1,2-d]thiazol-6-yl)oxy]acetic acid]	6.68	8.70
O=C(O)COc1cccc2c1CCc1sc(S(=O)(=O)CC(c3ccccc3)c3ccccc3)nc1-2 [Example 29, [[2-(2,2-Diphenylethyl)sulfonyl-4,5-dihydronaphtho[1,2-d]thiazol-6-yl]oxy]acetic acid]	–	7.68
O=C(O)COc1cccc2c1OCc1sc(SCCC(c3ccccc3)c3ccccc3)nc1-2 [Example 11, [[2-(3,3-Diphenylpropyl)thio-4H-[1]benzopyrano[4,3-d]thiazol-6-yl]oxy]acetate acid]	–	7.09
